Results as given in ChEMBL document CHEMBL1687767, “New antiseptic peptides to protect against endotoxin-mediated shock” (Antimicrob Agents Chemother, 2010).
In brackets after ≈: the same amount, converted by molar mass. Activity calls are given as the source filed them. The rule behind the calls is not given here. Residues, ends and D or L forms follow the SMILES beside them.

Tests used:
Pseudomonas aeruginosa [1] = experiment: Antimicrobial activity against Pseudomonas aeruginosa ATCC 27853 by broth microdilution method; format: functional
Staphylococcus aureus [2] = experiment: Antimicrobial activity against methicillin-resistant Staphylococcus aureus ATCC 43300 by broth microdilution method; format: functional
Pseudomonas aeruginosa [3] = experiment: Antimicrobial activity against Pseudomonas aeruginosa CUN 4158-02 by broth microdilution method; format: functional
[4] = test system: Stenotrophomonas maltophilia; experiment: Antimicrobial activity against […] Stenotrophomonas maltophilia CUN 3998-00 by broth microdilution method; format: functional
Staphylococcus aureus [5] = experiment: Antimicrobial activity against methicillin-resistant Staphylococcus aureus CUN 3792-99 by broth microdilution method; format: functional
[6] = test system: Bordetella bronchiseptica; experiment: Antimicrobial activity against Bordetella bronchiseptica CUN11844-99 by broth microdilution method; format: functional
Escherichia coli = experiment: Antimicrobial activity against Escherichia coli ATCC 25922 by broth microdilution method; format: functional
Staphylococcus aureus [7] = experiment: Antimicrobial activity against Staphylococcus aureus ATCC 25923 by broth microdilution method; format: functional
Acinetobacter baumannii = experiment: Antimicrobial activity against […] Acinetobacter baumannii ATCC 19606 by broth microdilution method; format: functional
Homo sapiens = species on record: Homo sapiens; experiment: Antiinflammatory activity in human MNC assessed as inhibition of LPS-induced TNFalpha production at compound: LPS ratio of 100:1 weight percent by ELISA; format: functional
[8] = Toxicity in human RBC assessed as hemolysis upto 25 ug/ml; format: cell-based; settings: erythrocyte

CC(C)C[C@H](NC(=O)[C@H](Cc1c[nH]c2ccccc12)NC(=O)[C@H](CC(C)C)NC(=O)[C@H](CCCCN)NC(=O)[C@H](CCC(N)=O)NC(=O)[C@H](CCCCN)NC(=O)[C@H](CS)NC(=O)[C@H](CCCCN)NC(=O)[C@H](CC(C)C)NC(=O)[C@H](CCCCN)NC(=O)[C@H](Cc1ccccc1)NC(=O)[C@H](CCCNC(=N)N)NC(=O)[C@H](CCCNC(=N)N)NC(=O)[C@H](Cc1ccccc1)NC(=O)[C@H](CCCCN)NC(=O)[C@H](CCCCN)NC(=O)[C@H](CS)NC(=O)CN)C(=O)N[C@@H](Cc1c[nH]c2ccccc12)C(=O)N[C@@H](CS)C(=O)NCC(=O)O (H-GCKKFRRFKLKCKQKLWLWCG-OH)
MIC (Pseudomonas aeruginosa [1]): 256 µg/mL (≈ 96.3 µM) | MIC (Staphylococcus aureus [2]): 64 µg/mL (≈ 24.1 µM) | MIC (Pseudomonas aeruginosa [3]): 256 µg/mL (≈ 96.3 µM) | MIC [4]: 1020 µg/mL (≈ 385 µM) | MIC (Staphylococcus aureus [5]): 32 µg/mL (≈ 12 µM) | MIC [6]: 16 µg/mL (≈ 6.02 µM) | MIC (Escherichia coli): 1020 µg/mL (≈ 385 µM) | MIC (Staphylococcus aureus [7]): 1020 µg/mL (≈ 385 µM) | MIC (Acinetobacter baumannii): 64 µg/mL (≈ 24.1 µM)

CC(C)C[C@H](NC(=O)[C@H](CCCNC(=N)N)NC(=O)[C@H](CCCNC(=N)N)NC(=O)[C@H](Cc1ccccc1)NC(=O)[C@H](CCCCN)NC(=O)[C@H](CCCCN)NC(=O)[C@H](CS)NC(=O)CN)C(=O)N[C@@H](CCCCN)C(=O)N[C@@H](Cc1c[nH]c2ccccc12)C(=O)N[C@@H](CCCCN)C(=O)N[C@@H](Cc1ccc(O)cc1)C(=O)N[C@@H](CCCCN)C(=O)NCC(=O)N[C@@H](CCCCN)C(=O)N[C@@H](Cc1ccccc1)C(=O)N[C@@H](Cc1c[nH]c2ccccc12)C(=O)N[C@@H](Cc1ccccc1)C(=O)N[C@@H](Cc1c[nH]c2ccccc12)C(=O)N[C@@H](CS)C(=O)NCC(=O)O (H-GCKKFRRLKWKYKGKFWFWCG-OH)
MIC (Pseudomonas aeruginosa [1]): 256 µg/mL (≈ 93 µM) | MIC (Staphylococcus aureus [2]): 64 µg/mL (≈ 23.2 µM) | MIC (Pseudomonas aeruginosa [3]): 256 µg/mL (≈ 93 µM) | inhibition (Homo sapiens): Active | MIC [4]: 512 µg/mL (≈ 186 µM) | MIC (Staphylococcus aureus [5]): 1020 µg/mL (≈ 372 µM) | MIC [6]: 4 µg/mL (≈ 1.45 µM) | MIC (Escherichia coli): 64 µg/mL (≈ 23.2 µM) | MIC (Staphylococcus aureus [7]): 32 µg/mL (≈ 11.6 µM) | MIC (Acinetobacter baumannii): 64 µg/mL (≈ 23.2 µM)

N=C(N)NCCC[C@H](NC(=O)CNC(=O)[C@H](CCCNC(=N)N)NC(=O)[C@H](Cc1ccc(O)cc1)NC(=O)[C@H](CCCNC(=N)N)NC(=O)[C@H](Cc1c[nH]c2ccccc12)NC(=O)[C@H](CCCCN)NC(=O)[C@H](CCCCN)NC(=O)[C@H](Cc1ccccc1)NC(=O)[C@H](CCCCN)NC(=O)[C@H](CCCCN)NC(=O)[C@H](Cc1ccccc1)NC(=O)[C@H](CCCNC(=N)N)NC(=O)[C@H](CCCNC(=N)N)NC(=O)[C@H](CS)NC(=O)CN)C(=O)N[C@@H](Cc1ccccc1)C(=O)N[C@@H](Cc1c[nH]c2ccccc12)C(=O)N[C@@H](Cc1ccccc1)C(=O)N[C@@H](Cc1c[nH]c2ccccc12)C(=O)N[C@@H](CS)C(=O)N[C@@H](Cc1ccccc1)C(=O)NCC(=O)O (H-GCRRFKKFKKWRYRGRFWFWCFG-OH)
MIC (Pseudomonas aeruginosa [1]): 128 µg/mL (≈ 40.7 µM) | MIC (Staphylococcus aureus [2]): 32 µg/mL (≈ 10.2 µM) | MIC (Pseudomonas aeruginosa [3]): 128 µg/mL (≈ 40.7 µM) | MIC [4]: 64 µg/mL (≈ 20.3 µM) | MIC (Staphylococcus aureus [5]): 64 µg/mL (≈ 20.3 µM) | MIC [6]: 32 µg/mL (≈ 10.2 µM) | MIC (Escherichia coli): 64 µg/mL (≈ 20.3 µM) | MIC (Staphylococcus aureus [7]): 64 µg/mL (≈ 20.3 µM) | MIC (Acinetobacter baumannii): 64 µg/mL (≈ 20.3 µM)

N=C(N)NCCC[C@H](NC(=O)[C@H](Cc1ccc(O)cc1)NC(=O)[C@H](CCCNC(=N)N)NC(=O)[C@H](Cc1c[nH]c2ccccc12)NC(=O)[C@H](CCCNC(=N)N)NC(=O)[C@H](Cc1ccccc1)NC(=O)[C@H](CCCCN)NC(=O)[C@H](CCCCN)NC(=O)[C@H](Cc1c[nH]c2ccccc12)NC(=O)[C@H](CCCNC(=N)N)NC(=O)[C@H](CCCNC(=N)N)NC(=O)[C@H](CS)NC(=O)CN)C(=O)NCC(=O)N[C@@H](CCCCN)C(=O)N[C@@H](Cc1ccccc1)C(=O)N[C@@H](Cc1c[nH]c2ccccc12)C(=O)N[C@@H](Cc1ccccc1)C(=O)N[C@@H](Cc1c[nH]c2ccccc12)C(=O)N[C@@H](CS)C(=O)NCC(=O)O (H-GCRRWKKFRWRYRGKFWFWCG-OH)
MIC (Pseudomonas aeruginosa [1]): 128 µg/mL (≈ 44 µM) | MIC (Staphylococcus aureus [2]): 32 µg/mL (≈ 11 µM) | MIC (Pseudomonas aeruginosa [3]): 128 µg/mL (≈ 44 µM) | MIC [4]: 64 µg/mL (≈ 22 µM) | MIC (Staphylococcus aureus [5]): 64 µg/mL (≈ 22 µM) | MIC [6]: 32 µg/mL (≈ 11 µM) | MIC (Escherichia coli): 128 µg/mL (≈ 44 µM) | MIC (Staphylococcus aureus [7]): 64 µg/mL (≈ 22 µM) | MIC (Acinetobacter baumannii): 64 µg/mL (≈ 22 µM)

N=C(N)NCCC[C@H](NC(=O)[C@H](Cc1ccc(O)cc1)NC(=O)[C@H](CCCCN)NC(=O)[C@H](CCCCN)NC(=O)CN)C(=O)N[C@@H](CCCNC(=N)N)C(=O)N[C@@H](Cc1ccccc1)C(=O)N[C@@H](CCCNC(=N)N)C(=O)N[C@@H](Cc1c[nH]c2ccccc12)C(=O)N[C@@H](CCCCN)C(=O)N[C@@H](Cc1ccccc1)C(=O)N[C@@H](CCCCN)C(=O)NCC(=O)N[C@@H](CCCCN)C(=O)N[C@@H](Cc1c[nH]c2ccccc12)C(=O)N[C@@H](Cc1ccccc1)C(=O)N[C@@H](Cc1c[nH]c2ccccc12)C(=O)N[C@@H](Cc1ccccc1)C(=O)NCC(=O)O (H-GKKYRRFRWKFKGKWFWFG-OH)
MIC (Pseudomonas aeruginosa [1]): 16 µg/mL (≈ 6.13 µM) | MIC (Staphylococcus aureus [2]): 16 µg/mL (≈ 6.13 µM) | MIC (Pseudomonas aeruginosa [3]): 16 µg/mL (≈ 6.13 µM) | MIC [4]: 32 µg/mL (≈ 12.3 µM) | MIC (Staphylococcus aureus [5]): 16 µg/mL (≈ 6.13 µM) | MIC [6]: 4 µg/mL (≈ 1.53 µM) | MIC (Escherichia coli): 16 µg/mL (≈ 6.13 µM) | MIC (Staphylococcus aureus [7]): 16 µg/mL (≈ 6.13 µM) | MIC (Acinetobacter baumannii): 16 µg/mL (≈ 6.13 µM)

N=C(N)NCCC[C@H](NC(=O)[C@H](Cc1ccc(O)cc1)NC(=O)[C@H](CCCCN)NC(=O)[C@H](CCCCN)NC(=O)CN)C(=O)N[C@@H](CCCNC(=N)N)C(=O)N[C@@H](Cc1ccccc1)C(=O)N[C@@H](Cc1c[nH]c2ccccc12)C(=O)N[C@@H](CCCCN)C(=O)N[C@@H](Cc1ccccc1)C(=O)N[C@@H](CCCCN)C(=O)NCC(=O)N[C@@H](CCCCN)C(=O)N[C@@H](Cc1c[nH]c2ccccc12)C(=O)N[C@@H](Cc1ccccc1)C(=O)N[C@@H](Cc1c[nH]c2ccccc12)C(=O)N[C@@H](Cc1ccccc1)C(=O)N[C@@H](Cc1c[nH]c2ccccc12)C(=O)NCC(=O)O (H-GKKYRRFWKFKGKWFWFWG-OH)
MIC (Pseudomonas aeruginosa [1]): 8 µg/mL (≈ 3.03 µM) | MIC (Staphylococcus aureus [2]): 16 µg/mL (≈ 6.06 µM) | MIC (Pseudomonas aeruginosa [3]): 32 µg/mL (≈ 12.1 µM) | MIC [4]: 64 µg/mL (≈ 24.3 µM) | MIC (Staphylococcus aureus [5]): 16 µg/mL (≈ 6.06 µM) | MIC [6]: 8 µg/mL (≈ 3.03 µM) | MIC (Escherichia coli): 1020 µg/mL (≈ 388 µM) | MIC (Staphylococcus aureus [7]): 1020 µg/mL (≈ 388 µM) | MIC (Acinetobacter baumannii): 16 µg/mL (≈ 6.06 µM)

N=C(N)NCCC[C@H](NC(=O)CNC(=O)[C@H](CCCNC(=N)N)NC(=O)[C@H](Cc1ccccc1)NC(=O)[C@H](CCCNC(=N)N)NC(=O)[C@H](Cc1c[nH]c2ccccc12)NC(=O)[C@H](CCCCN)NC(=O)[C@H](Cc1ccccc1)NC(=O)[C@H](CCCCN)NC(=O)[C@H](CCCCN)NC(=O)[C@H](Cc1ccc(O)cc1)NC(=O)[C@H](CCCNC(=N)N)NC(=O)[C@H](CCCNC(=N)N)NC(=O)CN)C(=O)N[C@@H](Cc1ccccc1)C(=O)N[C@@H](Cc1c[nH]c2ccccc12)C(=O)N[C@@H](Cc1ccccc1)C(=O)N[C@@H](Cc1c[nH]c2ccccc12)C(=O)NCC(=O)O (H-GRRYKKFKWRFRGRFWFWG-OH)
MIC [6]: 16 µg/mL (≈ 6 µM) | MIC (Escherichia coli): 64 µg/mL (≈ 24 µM) | MIC (Staphylococcus aureus [7]): 32 µg/mL (≈ 12 µM)

N=C(N)NCCC[C@H](NC(=O)[C@H](Cc1ccccc1)NC(=O)[C@H](CCCCN)NC(=O)[C@H](Cc1c[nH]c2ccccc12)NC(=O)[C@H](CS)NC(=O)[C@H](Cc1ccccc1)NC(=O)[C@H](CCCNC(=N)N)NC(=O)[C@H](Cc1ccc(O)cc1)NC(=O)[C@H](CCCCN)NC(=O)CNC(=O)[C@H](Cc1ccccc1)NC(=O)[C@H](CCCNC(=N)N)NC(=O)[C@H](Cc1c[nH]c2ccccc12)NC(=O)[C@H](CCCCN)NC(=O)CNC(=O)[C@H](Cc1ccccc1)NC(=O)[C@@H](N)CCCCN)C(=O)NCC(=O)N[C@@H](Cc1c[nH]c2ccccc12)C(=O)N[C@@H](CCCCN)C(=O)O (H-KFGKWRFGKYRFCWKFRGWK-OH)
Activity [8]: Non-toxic
